Experiments:
Assay type in all cases: in vivo
Aedes aegypti [1] = assay: Insecticide effectiveness in the vapour phase against mosquitoes, impregnated paper unit in 20 m^3 room (Example 9); details: 5 mg/unit; for % mortality 24 h: 24th hour from start of test; for % Knock-down 8 h: at end of 8th hour; for Knock-down time KT10 / Knock-down time KT50 / Knock-down time KT90: average of 3 cages
Procedure: (§1) Test units consisting of a paper support 20 cm×10 cm in size were impregnated with the compound of examples 3, 7 and 8 and, for comparative purposes, with the reference compounds transfluthrin and metofluthrin, at an amount of 5.00 mg/unit for each compound (pure). Using a common laboratory stand, the test unit was placed at a height of about 30 cm from the ground along one side of a 20 m^3 room (L 3.00 m×D 2.49 m×H 2.69 m). In order to homogenize the insecticidal air within the room, a small electric fan was placed on the floor diagonal to the surface of the unit, in the nearest corner at a distance of about 50 cm from the unit. Three metal cages (L 8.4 cm×Ø 8.0 cm×mesh 1.0 mm) for every mosquito species, each containing 20 3-4 day old individuals of mixed sex, were placed along the other three sides of the room, at a height of 1.80 m from the ground and at a distance of 0.45 m from the respective walls. During the test the room was kept closed and temperature and humidity were controlled (T 23-26° C., RH 49-61%). The fan was switched on and left on for 8 continuous hours. The times needed to reach 10%, 50% and 90% insect knock-down (KT10, KT50 and KT90, respectively) were recorded.
(§2) Every 2 hours and up to the 6th hour after the fan was switched on, new cages were introduced containing insects (set of 3 cages for each species).
(§3) At the end of the 8th hour, the percentage of insects knocked down in all the cages was determined, then the insects were removed from the room and transferred into an uncontaminated atmosphere within closed containers containing a sugary solution. The percentage mortality was recorded at the 24th hour from the start of the test.
(§4) The results obtained are summarized in tables 1 and 2 and the data are averages for the 3 cages.

Culex quinquefasciatus [2] = assay: as above; details: 5 mg/unit; for % mortality 24 h: 24th hour from start of test; for % Knock-down 8 h: at end of 8th hour; for Knock-down time KT10 / Knock-down time KT50 / Knock-down time KT90: average of 3 cages
Procedure: as §1, §2, §3, §4

Aedes aegypti [3] = assay: Insecticide effectiveness in the vapour phase against mosquitoes, impregnated paper unit in 20 m^3 room (Example 5); details: 5 mg/unit; for % mortality 24 h: 24th hour from start of test; for % Knock-down 8 h: at end of 8th hour; for Knock-down time KT10 / Knock-down time KT50 / Knock-down time KT90: average of 3 cages
Procedure: (§5) Test units consisting of a paper support 20 cm×10 cm in size were impregnated with the compound of example 3 and, for comparative purposes, with the reference compounds transfluthrin and metofluthrin, at an amount of 5.00 mg/unit for each compound (pure).
(§6) Using a common laboratory stand, the test unit was placed at a height of about 30 cm from the ground along one side of a 20 m^3 room (L 3.00 m×D 2.49 m×H 2.69 m). In order to homogenize the insecticidal air within the room, a small electric fan was placed on the floor diagonal to the surface of the unit, in the is nearest corner at a distance of about 50 cm from the unit. Three metal cages (L 8.4 cm×Ø 8.0 cm×mesh 1.0 mm) for every mosquito species, each containing 20 3-4 day old individuals of mixed sex, were placed along the other three sides of the room, at a height of 1.80 m from the ground and at a distance of 0.45 m from the respective walls. During the test the room was kept closed and temperature and humidity were controlled (T 23-26° C., RH 49-61%).
(§7) The fan was switched on and left on for 8 continuous hours. The times needed to reach 10%, 50% and 90% insect knock-down (KT10, KT50 and KT90, respectively) were recorded.
as §2, §3, §4

Culex quinquefasciatus [4] = assay: as above; details: 5 mg/unit; for % mortality 24 h: 24th hour from start of test; for % Knock-down 8 h: at end of 8th hour; for Knock-down time KT10 / Knock-down time KT50 / Knock-down time KT90: average of 3 cages
Procedure: as §5, §6, §7, §2, §3, §4

Blattella germanica = assay: Effectiveness of residual insecticide on surfaces (glazed tiles) against cockroaches (Example 6); details: 50 mg/m^2 on glazed tiles; for percentage knock-down after 24 hours: 24 h exposure
Procedure: Solutions of the compound of example 3 in acetone and, for comparison, of the reference compounds Transfluthrin and Metofluthrin were applied from a distance of 12 cm onto glazed tiles (Ostara model, 15×15 cm=225 cm^2) by means of a suitable glass sprayer, so as to obtain an applied amount of pure compound equal to 50 mg/m^2. After treatment the tiles were transferred to and maintained in a closed test room at controlled temperature and humidity (24-25° C., RH 50-60%). Glass rings (H 5.5 cm×Ø 9.5 cm), with their internal surface treated with talc, and each containing 5 cockroaches, were positioned at the centre of the tiles for each of the assessment times of 24 hours, 3, 7, 10 and 14 days following treatment. For each assessment day, the insects were maintained on the surface for 24 hours and the time (hours, minutes) necessary to attain 100% knock-down followed by death, or percentage knock-down at the end of 24 hours, were recorded.

C=CC=C[C@@H]1[C@@H](C(=O)OCc2coc(Cc3ccccc3)c2)C1(C)C (mixture of isomers) [Example 7, (2-benzyl-4-hydroxymethylfuryl) (1R,3R)-3-((E/Z)-Buta-1,3-dienyl)-2,2-dimethylcyclopropane-1-carboxylate]
% mortality 24 h (Aedes aegypti [1]; insect exposure after 0 hours): 79%
% Knock-down 8 h (Aedes aegypti [1]; insect exposure after 0 hours): 5%
% mortality 24 h (Aedes aegypti [1]; insect exposure after 2 hours): 79%
% Knock-down 8 h (Aedes aegypti [1]; insect exposure after 2 hours): 0%
% mortality 24 h (Aedes aegypti [1]; insect exposure after 4 hours): 65%
% Knock-down 8 h (Aedes aegypti [1]; insect exposure after 4 hours): 0%
% mortality 24 h (Culex quinquefasciatus [2]; insect exposure after 0 hours): 70%
% Knock-down 8 h (Culex quinquefasciatus [2]; insect exposure after 0 hours): 8%
% mortality 24 h (Culex quinquefasciatus [2]; insect exposure after 2 hours): 35%
% Knock-down 8 h (Culex quinquefasciatus [2]; insect exposure after 2 hours): 2%
% mortality 24 h (Culex quinquefasciatus [2]; insect exposure after 4 hours): 23%
% Knock-down 8 h (Culex quinquefasciatus [2]; insect exposure after 4 hours): 0%

CC=CC1C(C(=O)OCc2c(F)c(F)c(COC)c(F)c2F)C1(C)C (centres unmarked) [Metofluthrin, (2,3,5,6-tetrafluoro-4-methoxy-methyl)benzyl-2,2-dimethyl-3-prop-1-enylcyclopropanecarboxylate]
% mortality 24 h (Aedes aegypti [3]; insect exposure after 0 hours): 100%
% Knock-down 8 h (Aedes aegypti [3]; insect exposure after 0 hours): 100%
Knock-down time KT10 (Aedes aegypti [3]; insect exposure after 0 hours): 23 min
Knock-down time KT50 (Aedes aegypti [3]; insect exposure after 0 hours): 30 min
Knock-down time KT90 (Aedes aegypti [3]; insect exposure after 0 hours): 39 min
% mortality 24 h (Aedes aegypti [3]; insect exposure after 2 hours): 100%
% Knock-down 8 h (Aedes aegypti [3]; insect exposure after 2 hours): 100%
Knock-down time KT10 (Aedes aegypti [3]; insect exposure after 2 hours): 7 min
Knock-down time KT50 (Aedes aegypti [3]; insect exposure after 2 hours): 9 min
Knock-down time KT90 (Aedes aegypti [3]; insect exposure after 2 hours): 15 min
% mortality 24 h (Aedes aegypti [3]; insect exposure after 4 hours): 100%
% Knock-down 8 h (Aedes aegypti [3]; insect exposure after 4 hours): 100%
Knock-down time KT10 (Aedes aegypti [3]; insect exposure after 4 hours): 6 min
Knock-down time KT50 (Aedes aegypti [3]; insect exposure after 4 hours): 8 min
Knock-down time KT90 (Aedes aegypti [3]; insect exposure after 4 hours): 14 min
% mortality 24 h (Culex quinquefasciatus [4]; insect exposure after 0 hours): 100%
% Knock-down 8 h (Culex quinquefasciatus [4]; insect exposure after 0 hours): 100%
Knock-down time KT10 (Culex quinquefasciatus [4]; insect exposure after 0 hours): 26 min
Knock-down time KT50 (Culex quinquefasciatus [4]; insect exposure after 0 hours): 30 min
Knock-down time KT90 (Culex quinquefasciatus [4]; insect exposure after 0 hours): 35 min
% mortality 24 h (Culex quinquefasciatus [4]; insect exposure after 2 hours): 100%
% Knock-down 8 h (Culex quinquefasciatus [4]; insect exposure after 2 hours): 100%
Knock-down time KT10 (Culex quinquefasciatus [4]; insect exposure after 2 hours): 11 min
Knock-down time KT50 (Culex quinquefasciatus [4]; insect exposure after 2 hours): 16 min
Knock-down time KT90 (Culex quinquefasciatus [4]; insect exposure after 2 hours): 24 min
% mortality 24 h (Culex quinquefasciatus [4]; insect exposure after 4 hours): 100%
% Knock-down 8 h (Culex quinquefasciatus [4]; insect exposure after 4 hours): 100%
Knock-down time KT10 (Culex quinquefasciatus [4]; insect exposure after 4 hours): 11 min
Knock-down time KT50 (Culex quinquefasciatus [4]; insect exposure after 4 hours): 16 min
Knock-down time KT90 (Culex quinquefasciatus [4]; insect exposure after 4 hours): 20 min
percentage knock-down after 24 hours (Blattella germanica; 1 day after treatment): 80%*)
Time to reach 100% knock-down (Blattella germanica; 1 day after treatment, one of the 5 individuals recovered within 24 hours): 2 h (24 h
percentage knock-down after 24 hours (Blattella germanica; 3 days after treatment): 24 h 40%
percentage knock-down after 24 hours (Blattella germanica; 7 days after treatment): 24 h 0%
percentage knock-down after 24 hours (Blattella germanica; 10 days after treatment): 24 h 0%
% mortality 24 h (Aedes aegypti [1]; insect exposure after 0 hours): 100%
% Knock-down 8 h (Aedes aegypti [1]; insect exposure after 0 hours): 100%
Knock-down time KT10 (Aedes aegypti [1]; insect exposure after 0 hours): 16 min
Knock-down time KT50 (Aedes aegypti [1]; insect exposure after 0 hours): 25 min
Knock-down time KT90 (Aedes aegypti [1]; insect exposure after 0 hours): 34 min
% mortality 24 h (Aedes aegypti [1]; insect exposure after 2 hours): 100%
% Knock-down 8 h (Aedes aegypti [1]; insect exposure after 2 hours): 100%
Knock-down time KT10 (Aedes aegypti [1]; insect exposure after 2 hours): 7 min
Knock-down time KT50 (Aedes aegypti [1]; insect exposure after 2 hours): 9 min
Knock-down time KT90 (Aedes aegypti [1]; insect exposure after 2 hours): 15 min
% mortality 24 h (Aedes aegypti [1]; insect exposure after 4 hours): 100%
% Knock-down 8 h (Aedes aegypti [1]; insect exposure after 4 hours): 100%
Knock-down time KT10 (Aedes aegypti [1]; insect exposure after 4 hours): 6 min
Knock-down time KT50 (Aedes aegypti [1]; insect exposure after 4 hours): 8 min
Knock-down time KT90 (Aedes aegypti [1]; insect exposure after 4 hours): 14 min
% mortality 24 h (Culex quinquefasciatus [2]; insect exposure after 0 hours): 100%
% Knock-down 8 h (Culex quinquefasciatus [2]; insect exposure after 0 hours): 100%
Knock-down time KT10 (Culex quinquefasciatus [2]; insect exposure after 0 hours): 22 min
Knock-down time KT50 (Culex quinquefasciatus [2]; insect exposure after 0 hours): 32 min
Knock-down time KT90 (Culex quinquefasciatus [2]; insect exposure after 0 hours): 36 min
% mortality 24 h (Culex quinquefasciatus [2]; insect exposure after 2 hours): 100%
% Knock-down 8 h (Culex quinquefasciatus [2]; insect exposure after 2 hours): 100%
Knock-down time KT10 (Culex quinquefasciatus [2]; insect exposure after 2 hours): 11 min
Knock-down time KT50 (Culex quinquefasciatus [2]; insect exposure after 2 hours): 16 min
Knock-down time KT90 (Culex quinquefasciatus [2]; insect exposure after 2 hours): 22 min
% mortality 24 h (Culex quinquefasciatus [2]; insect exposure after 4 hours): 100%
% Knock-down 8 h (Culex quinquefasciatus [2]; insect exposure after 4 hours): 100%
Knock-down time KT10 (Culex quinquefasciatus [2]; insect exposure after 4 hours): 10 min
Knock-down time KT50 (Culex quinquefasciatus [2]; insect exposure after 4 hours): 14 min
Knock-down time KT90 (Culex quinquefasciatus [2]; insect exposure after 4 hours): 20 min

From patent publication US9247750B2, “Polyenylcyclopropanecarboxylic esters with high insecticidal activity” (Endura S.P.A., priority 2007, dated 2016)
